6 molecules from patent EP3878447A1, “BETA ADRENERGIC RECEPTOR ANTAGONISTS” (InterAx Biotech AG, priority 2020, dated 2021) can be followed below.

As a reminder, the Ki is the equilibrium dissociation constant of an inhibitor or competing ligand from its target. Higher therefore signals a looser hold on the target. The term Kd denotes the free concentration of one partner at which half of the binding sites on the other are occupied at equilibrium, for simple one-to-one binding. One may read the pKi as the Ki on a negative log10 scale, so that one unit is a factor of ten. A low value points to a high Ki. In general, pIC50 refers to the negative decadic logarithm of the IC50, by convention in mol/L.

Counter-ions that a name gives are not always drawn. Like-named read-outs stand apart in the source and are kept apart here.

In experiment [1] the target is T1, B2AR (Homo sapiens, UniProt P07550). As to the kind of experiment: biochemical.
Experiment [2] deals with T1, B2AR. As to the kind of experiment: Saturation binding of [3H]-DHA on SNAP-B2AR HEK membranes. On the set-up: membranes prepared from it. Particulars: 5 µg SNAP-B2AR HEK membranes, specific binding; Mean ± SD, n=3; read-out: equilibrium dissociation constant (KD).
The target in experiment [3] is T1, B2AR. Nature of the experiment: Heterologous competition radioligand binding assay ([3H]-DHA) on SNAP-B2AR HEK membranes. Particulars: equilibrium competition binding with 1 nM [3H]-DHA, 120 min RT, mean ± SD.
Source text: Radioactivity was quantified using single photon counting on a TopCount NXT microplate scintillation and luminescence counter (Packard).
The target of experiment [4] is T1, B2AR.
Another experiment deals with B1AR (Homo sapiens, UniProt P08588). Nature of the experiment: Real-time cAMP inhibition assay in SNAP-B1AR-EPAC HEK cells. To be noted: SNAP-B1AR-EPAC HEK cells stimulated with 50 nM Isoproterenol for 10 min, compound for additional 40 min, AUC of EPAC FRET ratio; mean ± SD.
B1AR, sequence (P08588 whole entry): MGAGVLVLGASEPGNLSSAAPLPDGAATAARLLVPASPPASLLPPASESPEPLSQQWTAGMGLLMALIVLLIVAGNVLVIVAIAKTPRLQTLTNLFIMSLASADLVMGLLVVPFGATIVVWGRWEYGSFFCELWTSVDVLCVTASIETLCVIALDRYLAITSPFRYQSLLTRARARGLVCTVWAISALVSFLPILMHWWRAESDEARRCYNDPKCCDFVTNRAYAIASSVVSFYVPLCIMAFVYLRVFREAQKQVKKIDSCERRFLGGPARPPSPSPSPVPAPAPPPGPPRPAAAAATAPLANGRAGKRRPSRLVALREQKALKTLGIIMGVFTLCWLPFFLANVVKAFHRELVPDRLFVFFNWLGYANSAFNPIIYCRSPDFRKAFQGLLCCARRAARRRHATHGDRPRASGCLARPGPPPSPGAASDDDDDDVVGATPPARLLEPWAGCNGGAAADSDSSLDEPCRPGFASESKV

In the case of `NCC1Cc2cccc(-c3ccc(O)c(F)c3)c2O1` (stereo not drawn) [Compound 8, 4-[2-(aminomethyl)-2,3-dihydro-1-benzofuran-7-yl]-2-fluorophenol], on B2AR [1], the Ki was 100 to 1000 nM.

As to `CCCc1ccccc1OC[C@@H](O)CNC(C)C` [[^3H]-DHA, Dihydroalprenolol Hydrochloride, Levo-[Ring, Propyl-3H(N)]-], on B2AR [2], the Kd was determined as 0.3 ± 0.1 nM. For the molecule `NCC1Cc2cccc(-c3ccc(O)cc3)c2O1` (stereo not drawn) [Compound 4, 4-[2-(aminomethyl)-2,3-dihydro-1-benzofuran-7-yl]phenol], the Ki at B2AR [1] fell in the range of 100 to 1000 nM.

At B2AR [3], “5-[2-(aminomethyl)-2,3-dihydro-1-benzofuran-7-yl]pyridin-2-amine [Compound 5]” yielded a pKi of 5.5 ± 0.1. The Ki on B2AR [4] was 2510 nM. On B2AR [3], “4-[2-(aminomethyl)-2,3-dihydro-1-benzofuran-7-yl]benzamide [Compound 7]” gave a pKi of 6.0 ± 0.1. The Ki at B2AR [4] was 1260 nM. Besides, the pIC50 at B1AR was 4.6 ± 0.5. On to `COc1ccc(-c2cc(F)cc3c2OC(CN)C3)cn1` (stereo not drawn) [Compound 6, 1-[5-fluoro-7-(6-methoxypyridin-3-yl)-2,3-dihydro-1-benzofuran-2-yl]methanamine], for which, at B2AR [1], the Ki lay in the range of 100 to 1000 nM.
